Experimental data as given in patent US11905255B1, “Solid state forms of (S)-2-(((S)-6,8-difluoro-1,2,3,4-tetrahydronaphthalen-2-yl)amino)-N-(1-(2-methyl-1-(neopentylamino)propan-2-yl)-1H-imidazol-4-yl)pentanamide and uses thereof” (Pfizer Inc., priority 2019, dated 2024).
Where two headings read alike, the source gives them in different places.

How the values were obtained:
[1] = Description: Weighed samples of material were treated with aliquots of specified solvents at ambient temperature. Samples were typically sonicated between additions to facilitate dissolution. Complete dissolution was observed through visual inspection. Solubility was calculated based on the total amount of solvent added to achieve complete dissolution and may be greater than the value reported due to incremental solvent addition and the inherent kinetics of dissolution. If dissolution was not observed, values are reported as “less than”. If dissolution was observed upon the first addition of solvent, values are reported as “greater than”.
• (a) Solubility estimated using solvent addition method via visual assessment of samples. Values are rounded to nearest whole number and reported as “<” if dissolution was not observed. • (b) non-cGMP samples.

[2] = Drying experiments on selected materials, solid form by XRPD; assay type: physicochemical
From the text: Table 6 summarizes the drying conditions for selected materials. • (a) Temperature, RH, and duration of experiments are approximate.

[3] = 3 weeks slurry, gravimetric
Description: After approximately 24 hours, solids were isolated by centrifugation using eppendorf centrifuge tubes equipped with a 0.45 μm nylon filter. […] Equilibrium solubility of solids isolated were determined gravimetrically as follows. Measured aliquots of mother liquor solutions from the 3-week slurries were place in pre-weighed aluminum TGA pans. Subsequently, solvents were evaporated under ambient conditions or using vacuum. Remaining solids were weighed. • (a) Experiments were conducted for a total of ˜1 week and ˜3 weeks, both with solvent replacement after ˜1 day of slurrying. Solvent ratios (v/v) and duration of experiments are approximate.

## Br.Br.CCC[C@H](N[C@H]1CCc2cc(F)cc(F)c2C1)C(=O)Nc1cn(C(C)(C)CNCC(C)(C)C)cn1 [dihydrobromide salt of Compound 1, dihydrobromide salt of (s)-2-(((s)-6,8-difluoro-1,2,3,4-tetrahydronaphthalen-2-yl)amino)-n-(1-(2-methyl-1-(neopentylamino)propan-2-yl)-1h-imidazol-4-yl)pentanamide]
[1]
  Solubility Estimate (a): <1 mg/mL

## Br.Br.CCC[C@H](N[C@H]1CCc2cc(F)cc(F)c2C1)C(=O)Nc1cn(C(C)(C)CNCC(C)(C)C)cn1 [Form F, (S)-2-(((S)-6,8-difluoro-1,2,3,4-tetrahydronaphthalen-2-yl)amino)-N-(1-(2-methyl-1-(neopentylamino)propan-2-yl)-1H-imidazol-4-yl)pentanamide]
[2]; VO, 75° C., 1 day
  XRPD Results after drying: Consistent with Form D
[2]; VO, 77° C., 1 day
  XRPD Results after drying: Consistent with Form F;

## Br.Br.CCC[C@H](N[C@H]1CCc2cc(F)cc(F)c2C1)C(=O)Nc1cn(C(C)(C)CNCC(C)(C)C)cn1 [Form A, (S)-2-(((S)-6,8-difluoro-1,2,3,4-tetrahydronaphthalen-2-yl)amino)-N-(1-(2-methyl-1-(neopentylamino)propan-2-yl)-1H-imidazol-4-yl)pentanamide]
[3]; DMF/ACN (65/35), ambient
  Solubility (b): 10 mg/mL
[3]; DMF/IPA (60/40), ambient
  Solubility (b): 13 mg/mL
[3]; DMF/MIBK (85/15), ambient
  Solubility (b): 19 mg/mL
[3]; Dioxane/H2O (70/30), ambient
  Solubility (b): 24 mg/mL
[3]; EtOH/H2O (60/40), ambient
  Solubility (b): 36 mg/mL
[3]; H2O, ambient
  Solubility (b): 14 mg/mL
[3]; MEK/DMF (20/80), ambient
  Solubility (b): 17 mg/mL
[3]; MeOH (anhydrous), 2-8° C. (cold room)
  Solubility (b): 13 mg/mL
[3]; MeOH/Acetone (anhydrous) (50/50), ambient
  Solubility (b): 7 mg/mL
[3]; MeOH/EtOAc (anhydrous) (70/30), ambient
  Solubility (b): 6 mg/mL
[3]; MeOH/H2O (20/80), ambient
  Solubility (b): 17 mg/mL
[3]; NMP/Acetone (anhydrous) (85/15), ambient
  Solubility (b): 36 mg/mL
[3]; PG, ambient
  Solubility (b): 8 mg/mL
[3]; THF/H2O (85/15), ambient
  Solubility (b): 25 mg/mL

## Br.Br.CCC[C@H](N[C@H]1CCc2cc(F)cc(F)c2C1)C(=O)Nc1cn(C(C)(C)CNCC(C)(C)C)cn1 [Form D, (S)-2-(((S)-6,8-difluoro-1,2,3,4-tetrahydronaphthalen-2-yl)amino)-N-(1-(2-methyl-1-(neopentylamino)propan-2-yl)-1H-imidazol-4-yl)pentanamide]
[2]; Dried on P2O5, RT, 17 days, RH at prep.: 3%, RH at run: 43%, cell continues: selected peaks slightly shifted
  XRPD Results after drying: Consistent with Form D,
